Experiments:
Aβ plaques = target: T1, Aβ plaques (Homo sapiens, UniProt P05067); test: Ex vivo staining of mouse brain tissue sections (confocal fluorescence), with CG competition; assay type: binding, APP/PSEN1 transgenic mouse
T1 construct: from tissue; host or cells: brain (cortex and hippocampus) of 5 and 7 month old APP/PSEN1 transgenic mice
Description: The mice were engineered to progressively develop cortical and hippocampal plaques in an age-related manner similar to that observed in human AD pathology. Saggital sections (30 μm thick) from euthanized non-transgenic (control), 5, and 7 month old APP/PSEN1 mice were incubated in a 3 mM solution of the liposomes (concentration of Me-XO4 in the solution was 1 μM) for 2 h, at RT. This was followed by extensive washing with PBS to remove unbound liposomes. The stained tissues were mounted with […]® mounting media (Vector Laboratories, Inc., Burlingame, Calif.) to reduce background fluorescence and viewed under a confocal microscope.

[1] = target: T2, cortical and hippocampal Aβ plaques (Homo sapiens, UniProt P05067); test: In vivo delivery to cortical and hippocampal plaques after tail vein injection, confocal microscopy of brain sections; design: species or system APP/PSEN1 mice; conditions: 48 h after injection
T2 construct: from tissue; host or cells: brain (cortex and hippocampus) of 5 and 7 month old APP/PSEN1 transgenic mice
T2 sequence (P05067 672-713 limits assumed): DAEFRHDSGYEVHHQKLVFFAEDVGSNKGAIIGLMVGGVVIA
Description: 48 h following injection, the mice were euthanized and their brains sectioned for confocal light microscopic studies. Identical mice were injected with molecular/free methoxy-XO4 ligand to serve as a positive control, and with untargeted liposomes and saline as negative controls.

T1 sequence (P05067 672-713 limits assumed): as above

Compound	competition with Me-XO4-labeled liposomes for Aβ plaque deposits: fluorescence intensity and number of labeled plaques (Aβ plaques; 1 μM Me-XO4 and increasing concentrations of CG, cortex and hippocampus)	in vivo staining of plaques (fluorescence of brain sections) ([1]; 5 month old APP/PSEN1 mice)	in vivo staining of plaques (fluorescence of brain sections) ([1]; 7 month old APP/PSEN1 mice)	staining of Aβ plaque deposits on brain sections (Aβ plaques; 7 month old APP/PSEN1 mice, 30 μm sagittal sections, 1 μM Me-XO4, 2 h, RT)
O=C(O)c1cc(/N=N/c2ccc(-c3ccc(/N=N/c4ccc(O)c(C(=O)O)c4)cc3)cc2)ccc1O [CG, Chrysamine G]	decrease in fluorescence intensity and the number of labeled plaques	–	–	–
COc1cc(/C=C/c2ccc(O)cc2)ccc1/C=C/c1ccc(O)cc1 [free methoxy-XO4 ligand, methoxy-XO4]	–	no noteworthy fluorescence	bright staining of both cortical and hippocampal plaques	same plaque deposition pattern was observed

Source: patent publication US10124078B2, “Lipid-based nanoparticles” (BOARD OF REGENTS OF THE UNIVERSITY OF HOUSTON SYSTEM, priority 2011, dated 2018)
